The record followed here is ChEMBL document CHEMBL1671688, “Raltegravir penetration in seminal plasma of healthy volunteers” (Antimicrob Agents Chemother, 2010).

Common to all, as to format: ADME, organism-based
Series [1] can be described thus: Ratio of drug level in semen to blood in healthy human at […] administered twice daily measured 5 hrs post dosing by HPLC. The conditions noted are these: male.
A short description of series [2]: Ratio of drug level in semen to blood in healthy human at […] administered twice daily measured on day 5 by HPLC. Particulars: male.
The nature of series [3]: Ratio of drug level in semen to blood in healthy human at […] administered twice daily measured after 2 to 4 hrs by HPLC. Particulars: male.
Another series relates to Blood. The experiment in a line: Drug level in blood of healthy human at […] administered twice daily measured after 2 to 4 hrs by HPLC. The conditions noted are these: in vivo.
Series [4] can be described thus: Drug level in blood of healthy human at […] administered twice daily measured on day 5 by HPLC. The conditions noted are these: read-out: Drug uptake.
The nature of series [5]: Drug level in semen of healthy human at […] administered twice daily measured after 2 to 4 hrs by HPLC. The conditions noted are these: in vivo.
The nature of series [6]: Drug level in semen of healthy human at […] administered twice daily measured 5 hrs post dosing by HPLC. The conditions noted are these: male, read-out: Drug uptake.
Series [7] can be described thus: Drug level in semen of healthy human at […] administered twice daily measured on day 5 by HPLC. The conditions noted are these: male, read-out: Drug uptake.

For orientation: Kp means the ratio of the level in a tissue or fluid to that in plasma or blood. Take `Cc1nnc(C(=O)NC(C)(C)c2nc(C(=O)NCc3ccc(F)cc3)c(O)c(=O)n2C)o1` [RALTEGRAVIR]: in series [1], the Kp at 5 h turned out to be 1.42. Moreover, in series [2], the Kp at 5 day was 3.78. Besides, in series [3], the Kp was determined as 1.62. Further, the Drug uptake with Blood came out at 651 ng/mL; in series [5], 953 ng/mL. Further, the concentration at 5 day in series [4] is 51 ng/mL; in series [7], 212 ng/mL. For the same compound, the concentration at 5 h in series [6] turned out to be 345 ng/mL.
